Holding throughout (assay): NCI tumour cell line growth inhibition, 48 h
Test [1] concerns A498 renal.
In test [2] the test system is COLO 205 colon.
Test [3] has as its system HCT-15 colon.
The subject of test [4] is IGROV1 ovarian.
Test [5] deals with MDA-MB-231 breast.
Test [6] relates to MOLT-4 leukemia.
In test [7] the test system is NCI-H226 lung.
Test [8] concerns OVCAR-8 ovarian.
The test system of test [9] is SR leukemia.
Test [10] has as its system U251 CNS.

“And” between values parts separate entries of the source, which are not always exact repeats. Equal values may be shown once.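 Five concentrations, 48 hours, 96-well plates. GI50 is the concentration that inhibits growth by half. TGI: total growth inhibition.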 Where only a bound is given, the exact number is not on record here.

Consider `O=C1NCN(c2ccccc2)C12CCN(CCCN1CCN(CCOC(c3ccc(F)cc3)c3ccc(F)cc3)CC1)CC2`, for which the TGI is 3.35 µM in [1]; 3.18 µM in [2]; 5.3 µM in test [3]; 4.24 µM in [4]; 4.43 µM in [5]; 15.1 µM in test [6]. Further, the TGI in [7] turned out to be 3.84 µM; in test [8], 4.82 µM; in test [9], 6.67 µM; in test [10], 3.45 µM.
As for `O=C1c2ccccc2NC(=S)[C@@H]2CCCN12`, the TGI in test [1], in test [2], in [3], in test [4], in test [5] and in [6] was > 100 µM each time. Besides, the TGI in test [7], in test [8], in [9] and in test [10] was > 100 µM each time.
For `C=C(CN(C)C)C(=O)c1ccccc1[N+](=O)[O-]`, the TGI was > 92 µM in test [1]; 21.2 µM in test [2]; 27 µM and 12.6 µM in test [3]; 52.7 µM in test [4]; 38 µM and 34.1 µM in test [5]; 26.7 µM and 5.83 µM in test [6]. Besides, the TGI in test [7] is > 58.3 µM and 47 µM; in [8], 40.9 µM and 32 µM; in test [9], > 33.3 µM and 5.74 µM; in [10], 54.5 µM and 31.8 µM. Further, the GI50 in test [3] was 3.34 µM; in test [5] it was 12.6 µM; in test [6] it was 4.01 µM and 0.606 µM; in test [7] it was 20.9 µM; in test [8], 6.55 µM; in test [9] it was 1.65 µM. For the same molecule, in [10], the GI50 was 17.8 µM.
Turning to `CCOC(=O)C1CCC(=O)N1C(=O)c1ccccc1` (stereo unspecified), the TGI in [1], in [3], in test [4], in [5], in test [6] and in test [7] was > 100 µM each time. In addition, the TGI in [8], in test [9] and in test [10] was > 100 µM each time.
Consider `COc1ccc(NC(=S)NC(=O)c2ccc3c(c2)Sc2ccccc2O3)c([N+](=O)[O-])c1`, for which the TGI was 38.2 µM in test [1]; > 100 µM in test [2]; > 100 µM in test [3]; 59.1 µM in [4]; 62.8 µM in test [5]; > 100 µM in [6]. The TGI was > 100 µM in [7], > 100 µM in [8], > 100 µM in [9] and 60.6 µM in test [10].
`CCOC(=O)C#Cc1ccccc1`: the TGI in [1] was 75.3 µM; in [2] it was 25.9 µM; in test [3], > 100 µM; in [5], 95.1 µM; in [6] it was 12.8 µM; in [7], > 100 µM. Also, the TGI in test [8] was > 100 µM; in test [9] it was 4.76 µM; in [10], 25.9 µM.
For the molecule `C=Cc1ccccc1C1(O)C=CC(OC)(OC)C=C1`, the TGI in test [1] worked out at 41 µM; in test [2], 25.9 µM; in [3], 13.1 µM; in [4] it was 27 µM; in [5], 24.8 µM; in test [6] it was 10.6 µM. In addition, the TGI turned out to be 80.9 µM in test [7], 3.65 µM in [8], 7.02 µM in [9] and 12.7 µM in test [10].
As to `CC(C)(C)c1cc(C(=O)/C=C/c2ccc3c(c2)OCO3)cc(C(C)(C)C)c1O`, the TGI in [1] is > 56.4 µM; in test [2], 13.2 µM; in test [3], 33.9 µM; in [4], > 100 µM; in [5], 37.7 µM; in [6], > 26.6 µM. The TGI is > 80.6 µM in test [7], > 100 µM in test [8], 10 µM in [9] and 19.3 µM in test [10].
With `O=c1cc(-c2ccccc2)oc2c(-c3cc(Cl)cc4c(=O)cc(-c5ccccc5)oc34)cc(Cl)cc12`, the TGI in test [1] is 56.7 µM; in test [2], > 100 µM; in [3], > 100 µM; in [4], > 100 µM; in [5], > 100 µM; in [6], 52.1 µM. Moreover, the TGI is 83 µM in test [7], > 100 µM in test [8], > 100 µM in test [9] and > 100 µM in test [10].
As for `S=c1cc(-c2ccc3c(c2)OCO3)s[nH]1`, the TGI in [1], in [2], in test [3], in [4], in test [5] and in [6] was > 100 µM throughout. Besides, the TGI in [7], in test [8], in test [9] and in test [10] was > 100 µM each time.
Consider `CC(=O)c1ccc2c(c1)CC1(C2)Cc2ccccc2C1=O` (stereo unspecified), for which the TGI in test [1], in test [2], in test [3], in [4], in test [5] and in test [6] was > 100 µM throughout. In addition, the TGI in test [7], in test [8], in test [9] and in test [10] was > 100 µM in each case.
As to `[O-]/[N+](=C\c1ccccc1OC(=S)S)c1ccc(Cl)cc1`, the TGI in [1] was > 100 µM; in [2], 26.7 µM; in [3], > 100 µM; in [4], 30.7 µM; in test [5], 34.7 µM; in test [6] it was > 100 µM. The TGI was > 100 µM in test [7], 30.2 µM in test [8], > 100 µM in test [9] and > 100 µM in [10].
As to `CN(C)CC1CCC(CN(C)C)C1=O` (stereo unspecified), the TGI is > 58.9 µM in test [1]; 1.41 µM in test [2]; 4.82 µM in test [3]; 15.4 µM in test [4]; 4.18 µM in test [5]; 4.03 µM in test [6]. Further, the TGI in [7] was 38.8 µM; in [8] it was 10.3 µM; in test [9], > 100 µM; in test [10], 50.2 µM.
Take `CO[C@@H]1O[C@H](C(=O)c2ccccc2)[C@H]2OC(C)(C)O[C@@H]12`: the TGI in test [1], in test [2], in [3], in test [4], in test [5] and in [6] was > 100 µM throughout. The TGI in test [7], in test [8], in test [9] and in test [10] was > 100 µM each time.
Take `CC(NC(=O)N(C)C)NC(=O)N(C)C`: the TGI in [1], in test [2], in [3], in [4], in test [5] and in test [6] was > 10 µM each time. The TGI in test [7], in [8], in test [9] and in [10] was > 10 µM each time.
As to `CCOC(=O)c1cn2c(n1)sc1cc(Cl)cc(Cl)c12`, the TGI in [1], in test [2], in [3], in test [4], in [5] and in [6] was > 100 µM in each case. For the same molecule, the TGI in [7], in [8], in test [9] and in test [10] was > 100 µM in each case.
`COC(=O)/C(C#N)=C(/NCCN)Nc1ccccc1`: the TGI in [1], in [2], in test [3], in [4], in [5] and in [6] was > 100 µM each time. For the same molecule, the TGI in test [7], in test [8], in test [9] and in test [10] was > 100 µM each time.
Turning to `N#Cc1nc(C2CCC2)oc1N`, the TGI in test [1], in test [2], in [3], in [4], in test [5] and in test [6] was > 100 µM throughout. Further, the TGI in test [7], in test [8], in test [9] and in [10] was > 100 µM each time.
Turning to `COc1ccc(-c2cc(-c3ccccc3)[nH]c(=S)c2C#N)cc1`, the TGI is 60.2 µM in [1]; > 100 µM in test [3]; > 100 µM in [4]; > 100 µM in [5]; > 100 µM in test [6]; 96.2 µM in test [7]. In addition, the TGI is 90.5 µM in test [8], > 100 µM in test [9] and 54.4 µM in [10].
In the case of `Cc1ccc(C2=CC(=O)/C(=C\C(=O)c3ccc(Cl)cc3)O2)cc1`, the TGI is 71.8 µM in [1]; 26.1 µM in test [2]; 35.3 µM in [3]; 34.2 µM in test [4]; 25.1 µM in test [5]; > 100 µM in test [6]. Also, the TGI in test [7] was found to be 40 µM; in [8], 14.6 µM; in test [9], 6.1 µM; in [10], 32 µM.
Take `C=C1C(O)CC[C@]2(C)C1C1OC(C)(C)O[C@]13CC(=O)C(C)=C([C@H]1OC(C)(C)OC12)C3(C)C` (stereo partly specified): the TGI in test [1], in test [2], in test [3], in [4], in test [5] and in test [6] was > 100 µM throughout. Also, the TGI in [7], in test [8], in test [9] and in test [10] was > 100 µM throughout.
Regarding `COc1ccc(N(C(=O)Nc2ccc(Cl)c(Cl)c2)C2c3cccn3C(=O)N2c2ccc(Cl)c(Cl)c2)cc1` (stereo unspecified), the TGI in test [1], in test [2], in [3], in [4], in test [5] and in test [6] was > 100 µM each time. Besides, the TGI in test [7], in test [8], in [9] and in [10] was > 100 µM in each case.
Regarding `O=[N+]([O-])c1ccc2c(c1)C1=NN(c3ccccc3)C(c3ccccc3Br)C1CCC2` (stereo unspecified), the TGI in test [1], in [2], in test [3], in [4], in [5] and in test [6] was > 50 µM throughout. Moreover, the TGI in test [7], in [8], in test [9] and in test [10] was > 50 µM throughout.
In the case of `COc1cc(/C=C/C=C2\CC/C(=C\C=C\c3ccc(O)c(OC)c3)C2=O)ccc1O`, the TGI is > 100 µM in [1]; > 100 µM in test [2]; > 100 µM in test [3]; > 100 µM in test [4]; > 100 µM in test [5]; 22.2 µM in [6]. The TGI was > 100 µM in [7], > 100 µM in [8], 17.9 µM in [9] and > 100 µM in test [10].
For `O=C(C(Cl)=C(N1CCOCC1)N1CCOCC1)C(Cl)Cl`, the TGI in [1], in test [2], in test [3], in [4], in [5] and in [6] was > 100 µM each time. Also, the TGI in test [7], in test [8] and in test [9] was > 100 µM each time.
In the case of `CC(=O)OC1CCC2C3CCc4c(C)ccc(OS(=O)(=O)c5ccccc5)c4C3CCC12C` (stereo unspecified), the TGI in test [1], in test [2], in test [3], in [4], in [5] and in test [6] was > 100 µM throughout. For the same molecule, the TGI in test [7], in test [9] and in [10] was > 100 µM throughout.
Regarding `CCOC(=O)c1nc2cc(C(F)(F)F)ccc2nc1Nc1ccc(C(=O)NC(C(=O)OCC)C(=O)OCC)cc1`, the TGI was 50.3 µM in test [1]; > 100 µM in test [2]; > 100 µM in test [3]; 54.2 µM in test [4]; 50.4 µM in [5]; > 100 µM in [6]. Besides, the TGI is 34.8 µM in [7], > 100 µM in test [9] and 32 µM in [10].

Values taken from PubChem BioAssay (NCI).
